Measurements taken from paper PMC5308787, “Isoprenoid-phospholipid conjugates as potential therapeutic agents: Synthesis, characterization and antiproliferative studies” (PLoS ONE, 2017).

Assays:
[1] = system: MV4-11 (human biphenotypic B myelomonocytic leukaemia); experiment: Antiproliferative MTT assay, 72 h exposure; assay type: cell-based
Experimental: (§1) The biological studies were performed in vitro using human cancer cell lines: MV4-11 (human biphenotypic B myelomonocytic leukaemia), A-549 (non-small cell lung cancer), MCF-7 (breast cancer), LoVo (colon cancer), LoVo/DX (colon cancer drug resistant), HepG2 (liver cancer) and BALB/3T3 (normal mice fibroblasts). These lines were obtained from American Type Culture Collection (Rockville, Maryland, U.S.A.). The cell line is being maintained in the Institute of Immunology and Experimental Therapy, Wroclaw, Poland. All cell lines were grown at 37°C with 5% CO2 humidified atmosphere and were cultured in cultured medium according to the method described before.
(§2) Prior to usage, the compounds were dissolved in DMSO or in mixture of 99.8% ethanol and DMSO (1:1) to the concentration of 25 or 50 mM, and subsequently diluted in culture medium to reach the required concentrations (ranging from 5 to 625 μM).
(§3) Twenty-four hours prior to the addition of tested compounds, the cells were plated in 96-well plates (Sarstedt, Germany) at a density of 1 × 10^4 cells per well in 100 μL of culture medium. The assay was performed after 72 h of exposure to varying concentrations of the tested agents. The in vitro cytotoxic effect of tested agents was examined using the MTT (for MV4-11 cells) or SRB assay which were described previously. Each compound in each concentration was tested in triplicate in a single experiment, which was repeated 3–5 times.
(§4) The results of antiproliferative activity were given as IC50 values. Using this parameter we calculated also the resistance indexes (RI) dividing the IC50 values of selected compounds estimated for drug resistant cell LOVO/DX line by respective values designated for drug sensitive LoVo line. According to Harker et al. three categories of the cells could be distinguished: (a) the cells are drug-sensitive—if the ratio approaches 0–2; (b) the cells are moderately drug-resistant—if the ratio ranges from 2 to 10; (c) the cells are markedly drug-resistant—if the ratio is higher than 10.

[2] = system: A-549 (non-small cell lung cancer); experiment: Antiproliferative SRB assay, 72 h exposure; assay type: cell-based, human; conditions: n.a. = no activity in concentration of 5, 25, 125, 625 μM
Experimental: as §1, §2, §3, §4

HepG2 (liver cancer) = experiment: Antiproliferative SRB assay, 72 h exposure; assay type: cell-based, human; conditions: n.a. = no activity in concentration of 5, 25, 125, 625 μM
Experimental: as §1, §2, §3, §4

LoVo (colon cancer) = experiment: Antiproliferative SRB assay, 72 h exposure; assay type: cell-based, human; conditions: SRB, 72 h, mean ± SD of 3–5 experiments, n.a. = no activity in concentration of 5, 25, 125, 625 μM
Experimental: as §1, §2, §3, §4

[3] = system: LoVo/DX (colon cancer drug resistant); experiment: Antiproliferative SRB assay, 72 h exposure; assay type: cell-based, human; conditions: mean ± SD of 3–5 experiments, n.a. = no activity in concentration of 5, 25, 125, 625 μM
Experimental: as §1, §2, §3, §4

MCF-7 (breast cancer) = experiment: Antiproliferative SRB assay, 72 h exposure; assay type: cell-based, human; conditions: n.a. = no activity in concentration of 5, 25, 125, 625 μM
Experimental: as §1, §2, §3, §4

[4] = system: drug resistant LOVO/DX line vs drug sensitive LoVo line; experiment: Resistance index (RI): IC50 LOVO/DX divided by IC50 LoVo; assay type: cell-based, human; conditions: for Resistance index (RI): RI = IC50 resistant line / IC50 non-resistant line, 0<RI<2 able to overcome drug resistance, 2<RI<10 moderate ability, RI>10 no influence
Source text: as §4

[5] = system: BALB/3T3 (normal mice fibroblasts); experiment: Antiproliferative SRB assay, 72 h exposure; assay type: cell-based; conditions: n.a. = no activity in concentration of 5, 25, 125, 625 μM
Experimental: as §1, §2, §3, §4

[6] = Homo sapiens, MV4-11, mean ± SD of 3–5 independent experiments
[7] = Homo sapiens, A549, mean ± SD of 3–5 experiments
[8] = Homo sapiens, HepG2, mean ± SD of 3–5 experiments
[9] = Homo sapiens, MCF7, mean ± SD of 3–5 experiments
[10] = Mus musculus, BALB/3T3, mean ± SD of 3–5 experiments
[11] = mean ± SD of 3–5 independent experiments

Structure (SMILES) | IC50 [1, 6] | IC50 [2, 7] | IC50 (HepG2 (liver cancer); [8]) | IC50 (LoVo (colon cancer); Homo sapiens, LoVo) | IC50 ([3]; Homo sapiens, LoVo/DX) | IC50 (MCF-7 (breast cancer); [9]) | Resistance index (RI) [4] | IC50 [5, 10] | further results
C=CC(C)(CCC=C(C)C)CC(=O)O (centres unmarked) [1 (GERA), 3,7-dimethyl-3-vinyloct-6-enoic acid] | 256 ± 86.1 µM | 301 ± 66.9 µM | 517 ± 98.3 µM | 329 ± 54.5 µM | 281 ± 13.6 µM | 310 ± 84 µM | 0.85 |  | 
C=CC(C)(CC/C=C(\C)CCC=C(C)C)CC(=O)O (centres unmarked) [2 (FARA), (E)-3,7,11-trimethyl-3-vinyldodeca-6,10-dienoic acid] | 153 ± 20.1 µM | 91 ± 11.5 µM | 267 ± 15.5 µM | 99.2 ± 26 µM | 87 ± 14.4 µM | 162 ± 5.9 µM | 0.88 | 230 ± 40.3 µM | 
CCCC=C1C(C)(C)CCCC1(C)CC(=O)O (centres unmarked) [3 (DAA), 2-(2-butylidene-1,3,3-trimethylcyclohexyl)-acetic acid] | 132 ± 52.7 µM | 150 ± 16.8 µM | 274 ± 12 µM | 173 ± 38.7 µM | 109 ± 16 µM | 231 ± 43.2 µM | 0.63 | 297 ± 14.4 µM | 
C=CC(C)(CCCC(C)CCCC(C)CCCC(C)C)CC(=O)O (centres unmarked) [4 (PHYTA), 3,7,11,15-Tetramethyl-3-vinylhexadecanoic acid] | 39.3 ± 5.85 µM |  |  |  |  |  |  |  | 
N.N.[Cl][Pt][Cl] [Cisplatin, cisplatin, reference compound] |  |  |  |  |  |  |  |  | IC50 [1, 11]: 1.3 ± 0.47 µM; IC50 ([2]; mean ± SD of 3–5 experiments): 8.6 ± 0.7 µM; IC50 (HepG2 (liver cancer); mean ± SD of 3–5 experiments): 2.38 ± 0.64 µM; IC50 (LoVo (colon cancer)): 2.56 ± 0.35 µM; IC50 [3]: 3.17 ± 0.2 µM; IC50 (MCF-7 (breast cancer); mean ± SD of 3–5 experiments): 8.1 ± 0.03 µM; IC50 ([5]; mean ± SD of 3–5 experiments): 4.2 ± 1.1 µM
C=CC(C)(CCC=C(C)C)CC(=O)OC[C@H](COP(=O)([O-])OCC[N+](C)(C)C)OC(=O)CC(C)(C=C)CCC=C(C)C (some centres unmarked) [Compound 6a] | 50.1 ± 3.5 µM | 263 ± 19.7 µM | 286.4 ± 1.3 µM | 230 ± 6.9 µM | 245 ± 19.7 µM | 209 ± 12.9 µM |  | 280 ± 8.2 µM | 
CCC/C=C1/C(C)(C)CCCC1(C)CC(=O)OC[C@H](COP(=O)([O-])OCC[N+](C)(C)C)OC(=O)CC1(C)CCCC(C)(C)/C1=C/CCC (stereo partly drawn) [Compound 6c, (2’R)-1’,2’-di{2-[(3R,2"E)-2"-butylidene-1",3",3"-trimethyl]cyclohexyl}acetyl-sn-glycero-3’-phospocholine + (2’R)-1’,2’-di{2-[(3S,2"E)-2"-butylidene-1",3",3"-trimethyl]cyclohexyl}acetyl-sn-glycero-3’-phospocholine] | 38.6 ± 11.1 µM | 52.3 ± 1.9 µM | 56.7 ± 0.1 µM | 53.1 ± 3.6 µM | 56.9 ± 0.2 µM | 57.8 ± 2.6 µM |  | 57.3 ± 0.3 µM | 
C=CC(C)(CCCC(C)CCCC(C)CCCC(C)C)CC(=O)OC[C@H](COP(=O)([O-])OCC[N+](C)(C)C)OC(=O)CC(C)(C=C)CCCC(C)CCCC(C)CCCC(C)C (some centres unmarked) [Compound 6d] | 42.4 ± 9.52 µM |  |  |  |  |  |  |  | 
C=CC(C)(CCC=C(C)C)CC(=O)O[C@H](COC(=O)CCCCCCCCCCCCCCC)COP(=O)([O-])OCC[N+](C)(C)C (stereo partly drawn) [Compound 7a, (2’R)-1’-palmitoyl-2’-[(3R)-3,7-dimethyl-3-vinylocta-6-enyl]-sn-glycero-3’-phosphocholine + (2’R)-1’-palmitoyl-2’-[(3S)-3,7-dimethyl-3-vinylocta-6-enyl]-sn-glycero-3’-phosphocholine] | 95 ± 15.2 µM | 72.6 ± 1.6 µM | 159 ± 31.2 µM | 57.4 ± 0.7 µM | 154 ± 7.9 µM | 66.6 ± 4.2 µM | 1.91 | 246 ± 13.9 µM | able to overcome the barrier of P-gp-dependent resistance ([4]; judged from RI): exception
C=CC(C)(CC/C=C(\C)CCC=C(C)C)CC(=O)O[C@H](COC(=O)CCCCCCCCCCCCCCC)COP(=O)([O-])OCC[N+](C)(C)C (stereo partly drawn) [Compound 7b, (2'R)-1’-palmitoyl-2’-[(3R,6E)-3,7,11-trimethyl-3-vinyldodeca-6,10-dienyl]-sn-glycero-3’-phosphocholine + (2'R)-1’-palmitoyl-2’-[(3S,6E)-3,7,11-trimethyl-3-vinyldodeca-6,10-dienyl]-sn-glycero-3’-phosphocholine] | 50.3 ± 5.37 µM | 111 ± 12.9 µM | 272 ± 24.7 µM | 251 ± 22.7 µM | 486 ± 17.4 µM | 98.7 ± 15.6 µM | 1.16 | 518 ± 69.8 µM | 
C=CC(C)(CCCC(C)CCCC(C)CCCC(C)C)CC(=O)O[C@H](COC(=O)CCCCCCCCCCCCCCC)COP(=O)([O-])OCC[N+](C)(C)C (some centres unmarked) [Compound 7d] | 259 ± 32.5 µM |  |  |  |  |  |  |  | 
C=CC(C)(CCC=C(C)C)CC(=O)OC[C@@H](O)COP(=O)([O-])OCC[N+](C)(C)C (some centres unmarked) [Compound 8a] | 269 ± 18 µM |  |  | 245 ± 68.5 µM | 469 ± 3.2 µM | 372 ± 28.1 µM | 1.61 |  | 
CCC/C=C1/C(C)(C)CCCC1(C)CC(=O)OC[C@@H](O)COP(=O)([O-])OCC[N+](C)(C)C (stereo partly drawn) [Compound 8c, (2’R)-1’-{2-[(3R,2"E)-2"-butylidene-1",3",3"-trimethyl]cyclohexyl}acetyl-2’-hydroxy-sn-glycero-3’-phospocholine + (2’R)-1’-{2-[(3S,2"E)-2"-butylidene-1",3",3"-trimethyl]cyclohexyl}acetyl-2’-hydroxy-sn-glycero-3’-phospocholine] | 203 ± 15 µM |  |  | 284 ± 9.7 µM | 382 ± 32.4 µM | 470 ± 52.9 µM | 1.23 |  | 
C=CC(C)(CCCC(C)CCCC(C)CCCC(C)C)CC(=O)OC[C@@H](O)COP(=O)([O-])OCC[N+](C)(C)C (some centres unmarked) [Compound 8d] | 47.4 ± 6.35 µM |  |  |  |  |  |  |  | 
C=CC(C)(CCC=C(C)C)CC(=O)OC[C@H](COP(=O)([O-])OCC[N+](C)(C)C)OC(=O)CCCCCCCCCCCCCCC (some centres unmarked) [Compound 9a] | 31.8 ± 1.62 µM | 38.3 ± 6.7 µM | 59.2 ± 4.6 µM | 32.8 ± 5.1 µM | 52.7 ± 3.3 µM | 40 ± 1.9 µM |  | 57.6 ± 1 µM | 
C=CC(C)(CC/C=C(\C)CCC=C(C)C)CC(=O)OC[C@H](COP(=O)([O-])OCC[N+](C)(C)C)OC(=O)CCCCCCCCCCCCCCC (some centres unmarked) [Compound 9b] | 299 ± 39.3 µM |  |  | 269 ± 29.9 µM | 537 ± 61.2 µM | 489 ± 57.7 µM |  |  | 
CCC/C=C1/C(C)(C)CCCC1(C)CC(=O)OC[C@H](COP(=O)([O-])OCC[N+](C)(C)C)OC(=O)CCCCCCCCCCCCCCC (stereo partly drawn) [Compound 9c, (2’R)-1’-{2-[(3R,2"E)-2"-butylidene-1",3",3"-trimethyl]cyclohexyl}acetyl-2’-palmitoyl-sn-glycero-3’-phospocholine + (2’R)-1’-{2-[(3S,2"E)-2"-butylidene-1",3",3"-trimethyl]cyclohexyl}acetyl-2’-palmitoyl-sn-glycero-3’-phospocholine] | 50 ± 9 µM | 68.3 ± 1.5 µM | 303 ± 77.6 µM | 61.5 ± 4.84 µM | 75.5 ± 8.1 µM | 102 ± 11.2 µM |  | 292 ± 41.5 µM | 
C=CC(C)(CCCC(C)CCCC(C)CCCC(C)C)CC(=O)OC[C@H](COP(=O)([O-])OCC[N+](C)(C)C)OC(=O)CCCCCCCCCCCCCCC (some centres unmarked) [Compound 9d] | 259 ± 37 µM |  |  |  |  |  |  |  | 
CCCCCCCCCCCCCCCC(=O)OC[C@H](COP(=O)([O-])OCC[N+](C)(C)C)OC(=O)CCCCCCCCCCCCCCC [DPPC, reference compound] |  |  |  |  |  |  |  |  | IC50 [1, 11]: 179 ± 30.2 µM; IC50 ([2]; mean ± SD of 3–5 experiments): 230 ± 31.3 µM; IC50 (LoVo (colon cancer)): 274 ± 17.1 µM; IC50 (MCF-7 (breast cancer); mean ± SD of 3–5 experiments): 398 ± 194 µM; IC50 ([5]; mean ± SD of 3–5 experiments): 48.8 ± 2.1 µM
COc1cccc2c1C(=O)c1c(O)c3c(c(O)c1C2=O)C[C@@](O)(C(=O)CO)C[C@@H]3O[C@H]1C[C@H](N)[C@H](O)[C@H](C)O1 [Doxorubicin, doxorubicin, reference compound] |  |  |  |  |  |  | 55.81 |  | 
CCCCCCCCCCCCCCCC(=O)O [Palmitic acid, reference compound] | 161 ± 78.9 µM | 56.4 ± 1.6 µM | 275 ± 85.2 µM | 42.1 ± 4.6 µM | 86.3 ± 21.3 µM | 123 ± 63.4 µM |  | 60.4 ± 4 µM | 
